{"source": "patent US6455470B1", "about": "“Herbicidal compositions” (priority 1994, dated 2002)", "format_in_all_cases": "in vivo", "key": {"[1]": {"tested_on": "Alopecurus myosuroides (black grass)", "experiment": "Growth room pot test, post-emergence phytotoxicity on ALOMY", "protocol": "(§1) A simple mathematical method to test the additivity of a pesticide combination is based on the equation: [formula]\n(§2) in which X and Y represent the percentage-of-inhibition of growth by toxicant A and B, respectively. E is the expected percentage-of-inhibition of growth by the mixture A and B. In order to show synergism, the actual efficacy should be higher than E.\n(§3) The compounds were tested alone and in admixture with a co-herbicide, which was also tested alone, against the following weeds:\n(§4) In the test procedure three replicate pots per treatment were randomly arranged through a growth room. The plants were treated about three weeks after planting and then submitted to a photoperiod of 14 hours per day; the temperature was 15 degrees Centigrade during the day and 9 degrees at night. All applications of test formulations were performed using a MARDRIVE sprayer, simulating as far as possible field conditions. The pressure was controlled at 2 bar and the water volume was 300 l/ha. The weed plants were at a true leaf stage between 0 to 6 leaves.\n(§5) The results in the tables and figures are presented as average values of three replicates."}, "Avena fatua (wild oats)": {"tested_on": "Avena fatua (wild oats)", "experiment": "Growth room pot test, post-emergence phytotoxicity on AVEFA", "protocol": "as §1, §2, §3, §4, §5"}, "[2]": {"tested_on": "Lamium purpureum (red dead nettle)", "experiment": "Growth room pot test, post-emergence phytotoxicity on LAMPU", "protocol": "as §1, §2\n(§6) are formulated as suspension concentrates (SC) containing about 42% by weight of active ingredient.\nas §3, §4\n(§7) Assessment of phytotoxicity was made by comparison with untreated control pots on an arbitrary scale from 0 to 100%, where 0 represents no visible effect and 100 represents a kill of all plants. The results in the tables and figures are presented as average values of three replicates."}, "[3]": {"tested_on": "Matricaria chamomilla (mayweed)", "experiment": "Growth room pot test, post-emergence phytotoxicity on MATCH", "protocol": "as §1, §2, §3, §4, §5"}, "[4]": {"tested_on": "Stellaria media (common chickweed)", "experiment": "Growth room pot test, post-emergence phytotoxicity on STEME", "protocol": "as §1, §2, §3, §4, §5"}, "[5]": {"tested_on": "Veronica persica (common field speedwell)", "experiment": "Growth room pot test, post-emergence phytotoxicity on VERPE", "protocol": "as §1, §2, §6, §3, §4, §7"}, "[6]": {"tested_on": "Galium aparine (bedstraw cleavers)", "experiment": "Growth room pot test, post-emergence phytotoxicity on GALAP", "protocol": "as §1, §2, §6, §3, §4, §7"}, "weeds": {"tested_on": "weeds", "experiment": "Growth room pot test, overall synergy on the weeds", "conditions": "mixtures of sulfonylurea A or B with co-herbicide", "description": "It is generally admitted that, in case of synergism, the effectiveness of the mixture cannot be computed from that of the individual ingredients. Synergism is generally defined as the simultaneous action of two or more compounds in which the total response of an organism to the pesticide combination is greater that the sum of the individual components.\nas §1, §2, §3\nas §4, with “leaves. […]” for “leaves.”"}}, "note": "Where “and” joins values, the source holds several entries; their conditions need not be identical. Identical values can stand only once.", "data": [{"molecule": "imazamethabenz-methyl", "values": [{"measurement": "Phytotoxicity of herbicide alone", "setting": "[1]; 300 g/ha", "value": 15, "unit": "%"}, {"measurement": "Phytotoxicity of herbicide alone", "setting": "Avena fatua (wild oats); 100 g/ha", "value": 30, "unit": "%"}, {"measurement": "Phytotoxicity of herbicide alone", "setting": "[2]; 300 g/ha", "value": 60, "unit": "%"}, {"measurement": "Phytotoxicity of herbicide alone", "setting": "[3]; 300 g/ha", "value": 5, "unit": "%"}, {"measurement": "Phytotoxicity of herbicide alone", "setting": "[4]; 100 g/ha", "value": 10, "unit": "%"}, {"measurement": "Phytotoxicity of herbicide alone", "setting": "[5]; 200 g/ha", "value": 0, "unit": "%"}, {"measurement": "Phytotoxicity of herbicide alone", "setting": "[5]; 300 g/ha", "value": 10, "unit": "%"}]}, {"molecule": "CC(C)c1ccc(NC(=O)N(C)C)cc1", "note": "[Isoproturon, isoproturon]", "values": [{"measurement": "Phytotoxicity of herbicide alone", "setting": "[1]; 1000 g/ha", "value": 0, "unit": "%"}, {"measurement": "Phytotoxicity of herbicide alone", "setting": "Avena fatua (wild oats); 1000 g/ha", "value": 0, "unit": "%"}, {"measurement": "Phytotoxicity of herbicide alone", "setting": "[6]; 500 g/ha", "value": 0, "unit": "%"}, {"measurement": "Phytotoxicity of herbicide alone", "setting": "[2]; 500 g/ha", "value": 25, "unit": "%"}, {"measurement": "Phytotoxicity of herbicide alone", "setting": "[4]; 500 g/ha", "value": 0, "unit": "%"}, {"measurement": "Phytotoxicity of herbicide alone", "setting": "[5]; 500 g/ha", "value": 0, "unit": "%"}]}, {"molecule": "CCC(CC)Nc1c([N+](=O)[O-])cc(C)c(C)c1[N+](=O)[O-]", "note": "[Pendimethalin, pendimethalin]", "values": [{"measurement": "Phytotoxicity of herbicide alone", "setting": "[1]; 800 g/ha", "value": 10, "unit": "%"}, {"measurement": "Phytotoxicity of herbicide alone", "setting": "Avena fatua (wild oats); 1200 g/ha", "value": 0, "unit": "%"}, {"measurement": "Phytotoxicity of herbicide alone", "setting": "[6]; 1200 g/ha", "value": 60, "unit": "%"}, {"measurement": "Phytotoxicity of herbicide alone", "setting": "[2]; 400 g/ha", "value": 70, "unit": "%"}, {"measurement": "Phytotoxicity of herbicide alone", "setting": "[3]; 800 g/ha", "value": 50, "unit": "%"}, {"measurement": "Phytotoxicity of herbicide alone", "setting": "[4]; 800 g/ha", "value": 0, "unit": "%"}, {"measurement": "Phytotoxicity of herbicide alone", "setting": "[5]; 1200 g/ha", "value": 90, "unit": "%"}]}, {"molecule": "CCS(=O)(=O)c1nc2ccccn2c1S(=O)(=O)NC(=O)Nc1nc(OC)cc(OC)n1", "note": "[SU - A]", "values": [{"measurement": "Phytotoxicity of herbicide alone", "setting": "[1]; 10 g/ha", "value": "10% and 0%"}, {"measurement": "Phytotoxicity of herbicide alone", "setting": "[1]; 20 g/ha", "value": 0, "unit": "%"}, {"measurement": "Phytotoxicity of herbicide alone", "setting": "Avena fatua (wild oats); 10 g/ha", "value": 0, "unit": "%"}, {"measurement": "Phytotoxicity of herbicide alone", "setting": "Avena fatua (wild oats); 30 g/ha", "value": "0% and 10%"}, {"measurement": "Phytotoxicity of herbicide alone", "setting": "[6]; 20 g/ha", "value": 60, "unit": "%"}, {"measurement": "Phytotoxicity of herbicide alone", "setting": "[3]; 10 g/ha", "value": "70% and 40%"}, {"measurement": "Phytotoxicity of herbicide alone", "setting": "[3]; 20 g/ha", "value": "90% and 45%"}, {"measurement": "Phytotoxicity of herbicide alone", "setting": "[3]; 30 g/ha", "value": 70, "unit": "%"}, {"measurement": "Phytotoxicity of herbicide alone", "setting": "[4]; 10 g/ha", "value": "70% and 50%"}, {"measurement": "Phytotoxicity of herbicide alone", "setting": "[4]; 20 g/ha", "value": 60, "unit": "%"}, {"measurement": "Phytotoxicity of herbicide alone", "setting": "[4]; 30 g/ha", "value": "65% and 55%"}, {"measurement": "Phytotoxicity of herbicide alone", "setting": "[5]; 10 g/ha", "value": "30% and 20%"}, {"measurement": "Phytotoxicity of herbicide alone", "setting": "[5]; 20 g/ha", "value": "70% and 50%"}]}, {"molecule": "CC(C)N(C(=O)SCC(Cl)=C(Cl)Cl)C(C)C", "note": "[Triallate, triallate]", "values": [{"measurement": "Phytotoxicity of herbicide alone", "setting": "[1]; 1500 g/ha", "value": 50, "unit": "%"}, {"measurement": "Phytotoxicity of herbicide alone", "setting": "Avena fatua (wild oats); 1500 g/ha", "value": 65, "unit": "%"}, {"measurement": "Phytotoxicity of herbicide alone", "setting": "[2]; 1500 g/ha", "value": 50, "unit": "%"}, {"measurement": "Phytotoxicity of herbicide alone", "setting": "[3]; 1500 g/ha", "value": 10, "unit": "%"}, {"measurement": "Phytotoxicity of herbicide alone", "setting": "[4]; 1000 g/ha", "value": 10, "unit": "%"}, {"measurement": "Phytotoxicity of herbicide alone", "setting": "[5]; 500 g/ha", "value": 40, "unit": "%"}]}, {"molecule": "Nc1c(Cl)c(F)nc(OCC(=O)O)c1Cl", "note": "[Fluroxypyr, fluroxypyr]", "values": [{"measurement": "Phytotoxicity of herbicide alone", "setting": "[1]; 100 g/ha", "value": 0, "unit": "%"}, {"measurement": "Phytotoxicity of herbicide alone", "setting": "Avena fatua (wild oats); 100 g/ha", "value": 0, "unit": "%"}, {"measurement": "Phytotoxicity of herbicide alone", "setting": "[6]; 50 g/ha", "value": 70, "unit": "%"}, {"measurement": "Phytotoxicity of herbicide alone", "setting": "[2]; 1000 g/ha", "value": 50, "unit": "%"}, {"measurement": "Phytotoxicity of herbicide alone", "setting": "[3]; 100 g/ha", "value": 20, "unit": "%"}, {"measurement": "Phytotoxicity of herbicide alone", "setting": "[4]; 100 g/ha", "value": 60, "unit": "%"}, {"measurement": "Phytotoxicity of herbicide alone", "setting": "[5]; 100 g/ha", "value": 85, "unit": "%"}]}, {"molecule": "Cn1c(-c2ccccc2)cc(-c2ccccc2)[n+]1C", "note": "[Difenzoquat, difenzoquat]", "values": [{"measurement": "Phytotoxicity of herbicide alone", "setting": "[1]; 600 g/ha", "value": 5, "unit": "%"}, {"measurement": "Phytotoxicity of herbicide alone", "setting": "Avena fatua (wild oats); 600 g/ha", "value": 60, "unit": "%"}, {"measurement": "Phytotoxicity of herbicide alone", "setting": "[2]; 600 g/ha", "value": 5, "unit": "%"}, {"measurement": "Phytotoxicity of herbicide alone", "setting": "[4]; 400 g/ha", "value": 0, "unit": "%"}, {"measurement": "Phytotoxicity of herbicide alone", "setting": "[5]; 200 g/ha", "value": 0, "unit": "%"}]}, {"molecule": "CCS(=O)(=O)c1nc2sccn2c1S(=O)(=O)NC(=O)Nc1nc(OC)cc(OC)n1", "note": "[SU - B]", "values": [{"measurement": "Phytotoxicity of herbicide alone", "setting": "[1]; 20 g/ha", "value": 10, "unit": "%"}, {"measurement": "Phytotoxicity of herbicide alone", "setting": "[1]; 30 g/ha", "value": "20% and 40%"}, {"measurement": "Phytotoxicity of herbicide alone", "setting": "Avena fatua (wild oats); 20 g/ha", "value": "0% and 5%"}, {"measurement": "Phytotoxicity of herbicide alone", "setting": "Avena fatua (wild oats); 30 g/ha", "value": 0, "unit": "%"}, {"measurement": "Phytotoxicity of herbicide alone", "setting": "[6]; 20 g/ha", "value": 80, "unit": "%"}, {"measurement": "Phytotoxicity of herbicide alone", "setting": "[2]; 10 g/ha", "value": 0, "unit": "%"}, {"measurement": "Phytotoxicity of herbicide alone", "setting": "[3]; 20 g/ha", "value": 60, "unit": "%"}, {"measurement": "Phytotoxicity of herbicide alone", "setting": "[3]; 30 g/ha", "value": 90, "unit": "%"}, {"measurement": "Phytotoxicity of herbicide alone", "setting": "[4]; 20 g/ha", "value": 20, "unit": "%"}, {"measurement": "Phytotoxicity of herbicide alone", "setting": "[4]; 30 g/ha", "value": 30, "unit": "%"}, {"measurement": "Phytotoxicity of herbicide alone", "setting": "[5]; 20 g/ha", "value": 50, "unit": "%"}]}, {"molecule": "CCOC(=O)[C@@H](C)Oc1ccc(Oc2nc3ccc(Cl)cc3o2)cc1", "note": "[fenoxaprop-P-ethyl]", "values": [{"measurement": "Synergistic effect on the weeds (observed higher than expected)", "setting": "weeds", "value": "synergized"}]}]}
